Assay [1] deals with T1, Tyrosine-protein phosphatase non-receptor type 1 [1-301] (Homo sapiens, UniProt P18031).
T1 construct: 1-301
T1 sequence (P18031 whole entry): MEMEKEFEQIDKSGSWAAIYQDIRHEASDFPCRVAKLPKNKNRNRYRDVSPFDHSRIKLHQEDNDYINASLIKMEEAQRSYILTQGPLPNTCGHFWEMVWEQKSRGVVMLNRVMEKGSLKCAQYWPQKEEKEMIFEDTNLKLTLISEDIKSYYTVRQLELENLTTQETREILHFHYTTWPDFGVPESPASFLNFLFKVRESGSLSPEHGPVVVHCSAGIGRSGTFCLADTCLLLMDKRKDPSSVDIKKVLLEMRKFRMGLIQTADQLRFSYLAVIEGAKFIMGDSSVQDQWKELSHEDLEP
As to the kind of experiment: NMR Chemical Shift Titration Assay.

In assay [2] the target is T1, Tyrosine-protein phosphatase non-receptor type 1 [1-301]. As to the kind of experiment: PTP1B Inhibition Assay. As for the experimental part: Kinetic parameters were determined by fitting the reaction rates to different inhibition models as a function of the inhibitor and pNPP concentrations using GraphPad Prism version 6.0d. The total reaction volume in all cases was 500 μL, and the temperature was maintained at 25 °C using a water-regulated cuvette holder.

This is an account of results in BindingDB's records for doi:10.1021/acs.biochem.6b01025 (Washington College, 2017).

SMILES strings stand for the structures.

In general, Kd refers to a measure of binding affinity in units of concentration. For orientation: Ki means a measure of affinity in units of concentration, obtained from inhibition or displacement. Take `O=C(/C=C/c1ccc(O)c(O)c1)O[C@@H](C(=O)O)[C@@H](OC(=O)/C=C/c1ccc(O)c(O)c1)C(=O)O` [Cichoric acid (CHA)]: the Kd in assay [1] was 1.6 mM. Besides, the Ki in assay [2] is 1.4 mM.
